In the NIST ThermoML archive (doi:10.1021/je049899g):

Key:
[1] = 298.15 K, 101.33 kPa, Liquid; for viscosity: Capillary tube (Ostwald / Ubbelohde) method; for speed of sound: Sing-around technique in a fixed-path interferometer; for mass density: Vibrating tube method
[2] = xn = mol fraction of the nth substance listed; conditions: 298.15 K, 101.33 kPa, Liquid; for viscosity: Capillary tube (Ostwald / Ubbelohde) method; for speed of sound: Sing-around technique in a fixed-path interferometer; for mass density: Vibrating tube method

Cc1ccccc1C [1,2-dimethylbenzene]
[1]
Conditions | mass density [kg/m3] | speed of sound [m/s] | viscosity [mPa·s]
– | 875.2 | 1349 | 0.769

Cc1ccccc1C [1,2-dimethylbenzene] + CC(=O)CC(C)C
[2], x1 = 1
Conditions | mass density [kg/m3] | speed of sound [m/s] | viscosity [mPa·s]
– | 875.2 | 1349 | 0.769

Cc1cccc(C)c1 [1,3-dimethylbenzene]
[1]
Conditions | mass density [kg/m3] | speed of sound [m/s] | viscosity [mPa·s]
– | 859.4 | 1323 | 0.587

Cc1cccc(C)c1 [1,3-dimethylbenzene] + CC(=O)CC(C)C
[2], x1 = 1
Conditions | mass density [kg/m3] | speed of sound [m/s] | viscosity [mPa·s]
– | 859.4 | 1323 | 0.587

Cc1ccc(C)cc1 [1,4-dimethylbenzene]
[1]
Conditions | mass density [kg/m3] | speed of sound [m/s] | viscosity [mPa·s]
– | 856.1 | 1316 | 0.609

Cc1ccc(C)cc1 [1,4-dimethylbenzene] + CC(=O)CC(C)C
[2], x1 = 1
Conditions | mass density [kg/m3] | speed of sound [m/s] | viscosity [mPa·s]
– | 856.1 | 1316 | 0.609

CC(=O)CC(C)C [4-methylpentan-2-one]
[1]
Conditions | mass density [kg/m3] | speed of sound [m/s] | viscosity [mPa·s]
– | 796 | 1215 | 0.55

CC(=O)CC(C)C [4-methylpentan-2-one] + CC(C)c1ccccc1
[2], x2 = 0
Conditions | mass density [kg/m3] | speed of sound [m/s] | viscosity [mPa·s]
– | 796 | 1215 | 0.55

CC(=O)CC(C)C [4-methylpentan-2-one] + Cc1ccc(C)cc1
[2]
Conditions | mass density [kg/m3] | speed of sound [m/s] | viscosity [mPa·s]
x2 = 0 | 796 | 1215 | 0.55
x2 = 0.059 | 800.1 | 1215 | 0.553
x2 = 0.1454 | 805.8 | 1226 | 0.556
x2 = 0.2887 | 814.9 | 1248 | 0.562
x2 = 0.4325 | 823.6 | 1267 | 0.567
x2 = 0.5735 | 832.2 | 1284 | 0.572
x2 = 0.7166 | 840.5 | 1300 | 0.579
x2 = 0.8587 | 848.4 | 1311 | 0.591
x2 = 0.9419 | 853 | 1315 | 0.6

CC(=O)CC(C)C [4-methylpentan-2-one] + Cc1cccc(C)c1
[2]
Conditions | mass density [kg/m3] | speed of sound [m/s] | viscosity [mPa·s]
x2 = 0 | 796 | 1215 | 0.55
x2 = 0.0586 | 801.4 | 1207 | 0.554
x2 = 0.1483 | 809.5 | 1212 | 0.558
x2 = 0.2898 | 821.2 | 1233 | 0.564
x2 = 0.4312 | 830.5 | 1257 | 0.567
x2 = 0.5762 | 837.4 | 1280 | 0.569
x2 = 0.7187 | 842.8 | 1299 | 0.572
x2 = 0.8591 | 849 | 1314 | 0.577
x2 = 0.9429 | 854.4 | 1321 | 0.582

CC(=O)CC(C)C [4-methylpentan-2-one] + Cc1ccccc1C
[2]
Conditions | mass density [kg/m3] | speed of sound [m/s] | viscosity [mPa·s]
x2 = 0 | 796 | 1215 | 0.55
x2 = 0.0598 | 801.3 | 1214 | 0.562
x2 = 0.1483 | 808.9 | 1220 | 0.577
x2 = 0.2932 | 820.7 | 1237 | 0.605
x2 = 0.4368 | 832.2 | 1263 | 0.631
x2 = 0.582 | 843.4 | 1294 | 0.662
x2 = 0.7227 | 854.5 | 1318 | 0.694
x2 = 0.8635 | 865.1 | 1336 | 0.73
x2 = 0.9457 | 871.2 | 1345 | 0.751

CC(C)c1ccccc1 [isopropylbenzene]
[1]
Conditions | mass density [kg/m3] | speed of sound [m/s] | viscosity [mPa·s]
– | 857.1 | 1338 | 0.739

CC(C)c1ccccc1 [isopropylbenzene] + CC(=O)CC(C)C
[2]
Conditions | mass density [kg/m3] | speed of sound [m/s] | viscosity [mPa·s]
x1 = 0.0518 | 799.4 | 1227 | 0.563
x1 = 0.1305 | 804.6 | 1231 | 0.579
x1 = 0.2631 | 813.4 | 1234 | 0.6
x1 = 0.4022 | 822.6 | 1246 | 0.621
x1 = 0.5439 | 831.5 | 1262 | 0.645
x1 = 0.6917 | 840.3 | 1282 | 0.672
x1 = 0.842 | 848.7 | 1309 | 0.704
x1 = 0.9355 | 853.7 | 1325 | 0.725
x1 = 1 | 857.1 | 1338 | 0.739
